Activity calls are given as the source filed them. No cut-off for these calls is given here.

For test [1], the target named is Estrogen receptor (Rattus norvegicus) (UniProt P06211+Q62986). The test can be described thus: Binding affinity for rat uterine estrogen receptor relative to estradiol. Format: protein assay.
The target of test [2] is T1, Estrogen receptor (Mus musculus) (UniProt O08537+P19785).
Description: Anti-uterotropic effect as inhibition of 0.06 ug/injection estrone-induced uterine weight gain in mice at 10 ug/injection dose; No
Test [3] concerns the target T1, Estrogen receptor (Mus musculus). The test can be described thus: Uterotrophic effect in mice at 10 ug/injection dose; No. Format: functional, tissue-based. The note with it: Uterus.
Test [4] shares this target. The test can be described thus: Anti-uterotropic effect as inhibition of 0.06 ug/injection estrone-induced uterine weight gain in mice at 10 ug/injection dose; Yes. The format is functional.

T1 sequence (O08537 whole entry, looked up): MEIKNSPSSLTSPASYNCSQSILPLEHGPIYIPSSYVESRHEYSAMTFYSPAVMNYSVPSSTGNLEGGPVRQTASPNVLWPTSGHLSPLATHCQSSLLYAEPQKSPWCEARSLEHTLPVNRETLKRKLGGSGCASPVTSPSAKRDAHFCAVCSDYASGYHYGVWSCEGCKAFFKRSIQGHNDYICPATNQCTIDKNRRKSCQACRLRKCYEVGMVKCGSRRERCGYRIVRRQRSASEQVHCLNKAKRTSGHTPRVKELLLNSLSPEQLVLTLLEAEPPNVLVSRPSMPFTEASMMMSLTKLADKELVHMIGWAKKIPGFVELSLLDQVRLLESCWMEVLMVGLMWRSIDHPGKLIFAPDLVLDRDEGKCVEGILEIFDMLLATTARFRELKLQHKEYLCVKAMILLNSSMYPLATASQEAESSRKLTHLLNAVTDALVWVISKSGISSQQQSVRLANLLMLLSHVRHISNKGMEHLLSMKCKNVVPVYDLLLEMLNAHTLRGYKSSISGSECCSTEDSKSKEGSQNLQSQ
T1 sequence (P19785 whole entry, looked up): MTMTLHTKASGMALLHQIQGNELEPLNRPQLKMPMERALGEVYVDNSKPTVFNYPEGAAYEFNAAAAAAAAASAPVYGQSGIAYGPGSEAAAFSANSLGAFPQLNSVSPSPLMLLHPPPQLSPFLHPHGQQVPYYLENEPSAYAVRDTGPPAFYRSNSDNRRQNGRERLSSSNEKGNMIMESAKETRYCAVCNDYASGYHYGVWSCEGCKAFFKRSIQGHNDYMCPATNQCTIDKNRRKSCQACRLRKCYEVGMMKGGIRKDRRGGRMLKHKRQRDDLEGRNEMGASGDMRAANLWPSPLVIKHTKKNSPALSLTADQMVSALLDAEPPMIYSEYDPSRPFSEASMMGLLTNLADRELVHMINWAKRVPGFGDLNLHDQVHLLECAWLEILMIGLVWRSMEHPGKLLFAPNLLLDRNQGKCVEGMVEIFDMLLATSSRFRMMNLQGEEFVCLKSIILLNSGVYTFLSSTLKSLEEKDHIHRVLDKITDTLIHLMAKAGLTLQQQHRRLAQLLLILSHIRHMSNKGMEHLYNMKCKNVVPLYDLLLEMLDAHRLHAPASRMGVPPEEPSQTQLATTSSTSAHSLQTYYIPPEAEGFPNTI

`CCCCN(C)C(=O)CCCCCCCCCC[C@@H]1C[C@H](O)[C@@]2(C)CC[C@@H]3c4ccc(O)cc4CC[C@H]3[C@H]12` returned an RBA in test [1] below 0.001%.
`CCCCN(C)C(=O)CCCCCCCCCCCC[C@H]1C[C@H](O)[C@@]2(C)CC[C@@H]3c4ccc(O)cc4CC[C@H]3[C@H]12`: in test [2], the Antiuterotrophic activity entry was “inactive”. Further, the Uterotrophic activity result in test [3] is “inactive”. In test [1], this compound had an RBA below 0.001%.
Take `CCCCN(C)C(=O)CCCCCCCCCC[C@H]1C[C@H](O)[C@@]2(C)CC[C@@H]3c4ccc(O)cc4CC[C@H]3[C@H]12`: the Antiuterotrophic activity entry in test [2] is “inactive”. Further, the Uterotrophic activity entry in test [3] was “inactive”. In test [1], this compound showed an RBA of 0.05%.
Consider `CCCCN(C)C(=O)CCCCCCCCCCC1C[C@H](O)[C@@]2(C)CC[C@@H]3c4ccc(O)cc4CC[C@H]3[C@H]12` (some centres not stated), for which the Antiuterotrophic activity result in test [2] was “inactive”. Further, the Uterotrophic activity result in test [3] was “inactive”. Also, the RBA in test [1] turned out to be 0.001%.
Regarding `CCCCN(C)C(=O)CCCCCCCCCCCC[C@@H]1C[C@H](O)[C@@]2(C)CC[C@@H]3c4ccc(O)cc4CC[C@H]3[C@H]12`, the Antiuterotrophic activity entry in test [2] was “inactive”. Moreover, the Uterotrophic activity result in test [3] is “inactive”. Further, in test [1], the RBA is below 0.001%.
Consider `CCCCN(C)C(=O)CCCCCCCCCC[C@]1(O)CC[C@H]2[C@@H]3CCc4cc(O)ccc4[C@H]3CC[C@@]21C`, for which the Antiuterotrophic activity entry in test [2] was “inactive”. In test [3], the Uterotrophic activity result was “inactive”. Moreover, the RBA in test [1] came to 0.01%.
As to `CCCCN(C)C(=O)CCCCCCCCC1C[C@H](O)[C@@]2(C)CC[C@@H]3c4ccc(O)cc4CC[C@H]3[C@H]12` (some centres not stated), the Antiuterotrophic activity result in test [2] was “inactive”. Further, the Uterotrophic activity entry in test [3] is “inactive”. Also, the RBA in test [1] is below 0.001%.
As to `CCCCN(C)C(=O)CCCCCCCCCC[C@@H]1Cc2cc(O)ccc2[C@H]2CC[C@]3(C)[C@@H](O)CC[C@H]3[C@H]12`, the Antiuterotrophic activity entry in test [4] is “inactive”. Moreover, the Uterotrophic activity entry in test [3] is “inactive”. This compound also had an RBA in test [1] of 1.2%.

These data come from ChEMBL document CHEMBL1129085.
